From the METLIN SMRT retention time set (Domingo-Almenara et al. 2019)

Assay: gradient 5% acetonitrile 3 min, to 50% in 2 min, to 85% in 15 min, held 3 min, 100 µL/min
Details: column: Zorbax Extend-C18 2.1 x 50 mm; eluents: water / acetonitrile, 0.1% formic acid
Outline: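 Retention times of pure standards were taken from adduct peaks that were selected by computer and manually inspected. Over 3 months, mixtures of ~100 molecules were run by HPLC–quadrupole time-of-flight mass spectrometry in positive and negative ionization mode. The Zorbax Extend-C18 column (2.1 × 50 mm, 1.8 μm) ran at 100 μL/min in water and acetonitrile, each containing 0.1% formic acid, with 40 μL dead volume and 900 μL dwell volume.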

SMILES | RP-LC retention time [s]
CCCc1ccc(S(=O)(=O)N(C)CC2CCOCC2)cc1 | 1020
Cc1ncoc1C(=O)N1CCC(c2noc(-c3cnccn3)n2)C1 (centres undefined) | 620
CCc1cccc(NC(=O)Cn2nc3cc(C)nc(N4CCCC4)n3c2=O)c1 | 798
COc1cccc(CNC(=O)CCc2nnc3c4cc(-c5ccccc5)nn4ccn23)c1 | 752
CCCNC(=O)C1CCCN(c2ccc(SCC(=O)Nc3ccc(F)cc3F)nn2)C1 (centres undefined) | 657
CCc1nc2cc(N3CCC(C(=O)NC4CCCC4)CC3)cnc2nc1CC | 785
O=C(CCc1c(-c2ccccc2)nc2ccccn12)Nc1ccc(F)cc1 | 674
CCCCNC(=O)C(C)n1nc(C)c2c(C)n(-c3ccccc3)nc2c1=O (centres undefined) | 787
O=C(c1ccc2c(c1)OCO2)N(c1ccc(Br)cc1)C1C=CS(=O)(=O)C1 (centres undefined) | 779
Cc1ccc(Nc2nc3ccncc3n(C(C)C)c2=O)cc1C | 716
CS(=O)(=O)N1CCCc2cc(C(=O)NCc3ccccn3)ccc21 | 607
Cc1cnc(C(=O)N2CC(c3nc(CCOC4CCCC4)no3)C2)cn1 | 777
CCOc1ccccc1NC(=O)C1CCN(S(=O)(=O)c2cc(-c3noc(C)n3)sc2C)CC1 | 1010
Cc1ccccc1CNC(=O)Cc1csc2nc(-c3ccccc3)cn12 | 792
CCOC(=O)c1sc(NC(=O)c2ccco2)nc1-c1ccccc1 | 899
CCOC(=O)c1c(S(=O)(=O)N2CCC(C(=O)Nc3ccccc3C)CC2)c(C)n(CC)c1C | 874
O=C(CCNc1c(-c2ccccc2)nc2cnccn12)NCC1CCCO1 (centres undefined) | 576
Cc1cc(C)cc(NC(=O)c2c(O)c3cccnc3n(-c3ccc(F)cc3)c2=O)c1 | 803
COc1cccc(C(O)CN2CCN(c3ccc(C)cc3)CC2)c1 (centres undefined) | 677

SMILES | RP-LC retention time [s]
COc1ccc(Cl)cc1C(=O)N1CCC(C(=O)Nc2nccs2)CC1 | 697
CC1=NS(=O)(=O)N(C)C=C1C(=O)OCc1noc(-c2ccccc2C)n1 | 987
Cc1ccc(-c2nnc(-c3nc(NCCN4CCCC4)c4ccccc4n3)o2)cc1 | 713
Cc1ccc(C(=O)N2C[C@@H]3C[C@H]2C[C@@H]3NS(=O)(=O)c2cccnc2)cc1F | 716
O=C(Cc1c[nH]c2ccccc12)N1CCN(C(=O)c2cc(-c3ccncc3)n[nH]2)CC1 | 578
CCOc1ccc(S(=O)(=O)N2CCCC(C(=O)NC(C)C)C2)cc1 (centres undefined) | 825
Cc1cccc(N(C)S(=O)(=O)c2ccc3c(c2)CCCC(=O)N3)c1 | 813
Cc1cc(C(=O)N2CCC(CC(=O)NC3CC3)C2)n(C)n1 (centres undefined) | 585
Nc1ccccc1-c1nc2ccncc2[nH]1 | 708
Cc1cccc(NC(=O)CC2COc3ccccc3NC2=O)c1C (centres undefined) | 736
Cc1nc(Cn2cccc2C(=O)NCc2cccc(Br)c2)no1 | 852
COC(=O)C1=CN(C2CC2)c2cc(N3CCOCC3)c(F)cc2S1(=O)=O | 736
CSc1ncc(C(=O)NC2CC2)c(N)n1 | 543
CCCNC(=O)CCc1nc2ccccc2n(CC(=O)Nc2cc(Cl)c(OC)cc2OC)c1=O | 790
COC(=O)c1ccc(NC(=O)CSc2cc(N3CCN(c4ccccc4OC)CC3)ncn2)cc1 | 970
Cc1cc(N2CCN(C(=O)Nc3ccc(F)c(Cl)c3)CC2)nc(N2CCCC2)n1 | 701
COc1ccc(C(C)NC(=O)c2cc(NC(C)=O)cc3nc(C)ccc23)cc1 (centres undefined) | 618
COc1ccc(Cc2nnc3sc(-c4ccc(OC)cc4OC)nn23)cc1 | 1030
COCC(=O)Oc1c(Sc2ccc(C)cc2)c(C)nn1-c1ccccc1 | 854

SMILES | RP-LC retention time [s]
CCOc1cccc(C2CC(c3ccc(OC)c(OC)c3)=NC3(CCN(C(C)C)CC3)N2)c1O (centres undefined) | 604
CC(C)Cn1nc(CNC(=O)C2CCC2)c2ccccc21 | 872
COc1cc(NC(=O)Cn2ccc3sc(C)cc3c2=O)cc(OC)c1 | 795
Cc1ccc(NC(=O)N2CCN(c3cc(C)nc(N4CCOCC4)n3)CC2)c(C)c1 | 666
CN(C)c1ccc(O)c2c1C[C@H]1C[C@H]3[C@H](N(C)C)C(=O)C(C(N)=O)=C(O)[C@@]3(O)C(=O)C1=C2O | 596
O=C(NC(c1ccccc1)c1nnc(N2CCOCC2)o1)c1ccc(Cl)cc1 (centres undefined) | 781
O=C1COc2ccc(-c3csc(NC(=O)C4CCCO4)n3)cc2N1 (centres undefined) | 715
COc1ccc(-c2cn3ccn(-c4ccc(F)c(Cl)c4)c(=O)c3n2)cc1 | 862
CN1C(=O)c2[nH]nc(-c3ccccc3)c2C1c1cccc(O)c1 (centres undefined) | 687
COc1ccc(C2Cn3cnc(C(=O)N4CCC(C(=O)NCC5CCCO5)CC4)c3CO2)cc1 (centres undefined) | 655
CCc1nc2cc(N3CCC(C(=O)NCc4ccc(N(C)C)cc4)CC3)cnc2nc1CC | 627
COC(=O)c1ccc(NC(=O)Cn2nc3nc(N4CCCC(C)C4)ccn3c2=O)cc1 (centres undefined) | 774
Cc1oc(-c2[nH]ncc2C(=O)N(C)C)cc1S(=O)(=O)N1CCN(CC(C)C)CC1 | 580
Cc1ccc(Nc2c(-c3ccc4c(c3)OCO4)nc3cnccn23)c(Br)c1 | 1000
COC(=O)c1cccc(NS(=O)(=O)c2cn(CC(C)C)c3ncccc23)c1 | 913
CN1C(=O)C2CCCCN2c2ccc(C(=O)NCCc3ccc(Cl)cc3)cc21 (centres undefined) | 971
Cc1nn(-c2nc(CC(=O)N3CCOCC3)cs2)c(C)c1Cl | 842
O=C(Nc1cnc(N2CCCCCC2)nc1)c1cc(F)cc(F)c1 | 1020
Cc1[nH]c(C(=O)N2CCC(CC(=O)NC3CCCCC3)CC2)c(C)c1C(=O)OC(C)C | 825

Other lines, results leading:

RP-LC retention time [s] | SMILES
662 | O=C(Nc1ccccc1)Nc1c(-c2ccc(F)cc2)nc2ccccn12
1160 | Cc1ccc(-n2c(N3CCCC(C(=O)Nc4ccc(C)c(Cl)c4)C3)nc3ccsc3c2=O)cc1 (centres undefined)
724 | CCOC(=O)C1CCN(c2cc3c(cc2NC(=O)CC)n(C)c(=O)c(=O)n3C)CC1
656 | Cc1ccc(Nc2c(-c3ccc(O)cc3)nc3ccccn23)cc1
1110 | COC(=O)c1ccc2c(=O)n(-c3cccc(Cl)c3)c(N3CCSC3)nc2c1
1390 | Cc1ccc(C2Cn3nnc(-c4nc(C5CCCCC5)no4)c3CO2)c(C)c1 (centres undefined)
665 | CCOc1cccc(CNc2nc3ccncc3n(CC)c2=O)c1
933 | Cc1ccccc1-c1nnc(CSc2ccc(NC(=O)C3CC3)cc2)o1
1020 | Cc1ccc(N2CCN(S(=O)(=O)c3cc4c(s3)CCN(C(=O)C3CC3)C4)CC2)cc1
678 | CNC(=O)N1CCc2nc(-c3ccccc3)ncc2C1
1080 | Cc1ccc(CNC(=O)C2(C)CCCN(C(=O)Nc3ccc(C)cc3Cl)C2)cc1 (centres undefined)
780 | CCCCNC(=O)CCCn1c(=O)c2cccn2c2ccccc21
700 | Cc1cccc(NC(=O)Cn2ccc3ccc(-c4nnc(C)o4)cc32)n1
613 | COCCC(=O)N1CCC(Oc2nccnc2N2CCOCC2)C1 (centres undefined)
902 | COc1ccc(-c2ncc(C(=O)Nc3ccc(OC)c(Cl)c3)c(-c3ccncc3)n2)cc1
678 | COc1ccccc1NC(=O)c1[nH]c2cc(C)sc2c1CN(C)C

RP-LC retention time [s] | SMILES
634 | COCCN1C(=O)c2ccccc2C(C(=O)NCCN2CCCCC2C)C1c1cccs1 (centres undefined)
827 | CC(Oc1cccc(Cl)c1)c1nc(-c2ccc3ncn(C)c3c2)no1 (centres undefined)
854 | CCc1cccc(C)c1NC(=O)CCC(=O)N1CCOc2ccccc21
678 | O=C(c1cccs1)N1CCC(c2noc(-c3cnccn3)n2)C1 (centres undefined)
869 | O=S(=O)(c1cccn2c(SCc3ccccc3F)nnc12)N1CCCCC1
565 | CCCN1CCN(c2ncc3c(n2)CCN(Cc2cccc(Br)c2)C3)CC1
574 | Cc1oc(-c2[nH]ncc2C(=O)N2CCCC2)cc1S(=O)(=O)N1CCN(C)CC1
717 | Cc1ccccc1C(=O)NCCc1nc2cccnc2n1CC(C)C
947 | COc1cccc(-c2noc(CCn3nc(-c4cccc(Cl)c4)ccc3=O)n2)c1OC
812 | COC1=CC(=O)C[C@@H](C)C12Oc1c(Cl)c(OC)cc(OC)c1C2=O (some centres undefined)
1190 | CC1CCN(S(=O)(=O)c2ccc(-c3nnc(C(=O)NCCC4=CCCCC4)o3)cc2)CC1
836 | Cn1nc(-c2ccccc2)cc1C(=O)NCCn1nc(-c2ccc(Cl)cc2)ccc1=O
589 | Cn1c(N2CCCC(C(=O)NCCN3CCN(c4ccccc4)CC3)C2)cc(=O)n(C)c1=O (centres undefined)
1040 | O=C(NCc1nc2ccccc2c(=O)n1-c1ccc(F)cc1)Nc1ccc(Cl)c(C(F)(F)F)c1
622 | CCOc1ccc2ncc(C(=O)c3ccc(C)cc3)c(N3CCN(CC)CC3)c2c1
968 | CCc1ccc(NC(=O)N2CCCC(C)(C(=O)NCc3cccc(OC)c3)C2)cc1 (centres undefined)
